# Reference: patent publication US10316050B2, “PT (IV) complexes containing 4,4′-disubstituted-2,2′-bipyridyl and their use in cancer therapy” (THE BOARD OF REGENTS OF THE NEVADA SYSTEM OF HIGHER …, priority 2014, dated 2019)
# Where two headings read alike, the source gives them in different places.
# How the values were obtained:
# Assay type in all cases: cell-based, human
# [1] = system: HCC38 breast cancer cells; experiment: MTS cell viability assay, HCC38; settings: read-out: EC50 (effective concentration that resulted in 50% cell viability)
# Procedure: (§1) Human breast (HCC38, MCF-7, MDA-MB-231, SK-BR-3, T-47D, and ZR-75-1), lung (A549 and H520), and prostate (DU145 and PC-3) cancer cell lines were obtained from American Culture Type Collection (ATCC). The HCC38, MCF-7, MDA-MB-231, SK-BR-3, T-47D, ZR-75-1, and A549 cells were grown in MEM supplemented with 10% FBS, 25 mM HEPES buffer (pH 7.4), penicillin (100 U/mL), and streptomycin (100 μg/mL). The H520, DU145, and PC-3 cell lines were grown in RPMI-1640 supplemented with 10% FBS, 25 mM HEPES buffer (pH 7.4), penicillin (100 U/mL), and streptomycin (100 μg/mL). All cell lines were maintained at 37° C. in a humidified, 5% CO2 atmosphere.
# (§2) Cells were cultured at a density of 2-3.5×10^3 cells per well in flat bottomed 96-well plates in 100 μL of complete growth medium and incubated for 2 days to reach ˜50% confluence. The cells were then treated with solvent or the appropriate drugs (CDDP stock was dissolved in 0.15 M NaCl, carboplatin stock was dissolved in 5% glucose, synthesized Pt(IV) complexes were dissolved in DMSO) for 1 hour, washed three times with 100 μL PBS, and incubated in 100 μL of fresh medium. After 2 days, the medium was replaced with 120 μL of medium containing CellTiter 96® Aqueous One Solution Reagent (MTS reagent) (Promega, Madison, Wis.). The cells were incubated at 37° C. for 4 hours and the cell viability was determined by measuring the absorbance at 490 nm using a Tecan Infinite M1000 microplate reader. The 48 h treatment was done in a similar manner, except the cells were not washed after treatment and the MTS reagent was immediately added. Viability of treated groups was calculated as a percent of control and graphed with GraphPad Prism.
# (§3) The anti-proliferative activities of Pt(IV) complexes were determined in two lung (A549 and H520), two prostate (DU145 and PC-3), and six breast (HCC38, MCF-7, MDA-MB-231, SK-BR-3, T-47D, and ZR-75-1) cancer cell lines. The cells were treated with increasing concentrations of cisplatin (CDDP), carboplatin, or the Pt(IV) complexes for 1 or 48 hours, and the viability was measured using an MTS colorimetric cell proliferation assay. Graphs of the results are shown for DU145 (FIG. 8A), PC-3 (FIG. 8B), SK-BR-3 (FIG. 8C), ZR-75-1 (FIG. 8D), A549 (FIG. 8E), and MCF-7 (FIG. 8F).
# [2] = system: PC-3 prostate cancer cells; experiment: MTS cell viability assay, PC-3; settings: for EC50: read-out: EC50 (effective concentration that resulted in 50% cell viability); for anti-proliferative activity compared to cisplatin (in words): PC-3, one and 48 hours treatment (FIG. 8I)
# Procedure: as §1, §2, §3
# (§4) The anti-proliferative activities of certain Pt(II) complexes were determined in DU145, PC-3, and SK-BR-3 cells. The cells were treated with increasing concentrations of cisplatin (CDDP) or the Pt(II) complexes for 1 or 48 hours, and the viability was measured using an MTS colorimetric cell proliferation assay.
# [3] = system: MDA-MB-231 breast cancer cells; experiment: MTS cell viability assay, MDA-MB-231; settings: read-out: EC50 (effective concentration that resulted in 50% cell viability)
# Procedure: as §1, §2, §3
# [4] = system: ZR-75-1 breast cancer cells; experiment: MTS cell viability assay, ZR-75-1; settings: read-out: EC50 (effective concentration that resulted in 50% cell viability)
# Procedure: as §1, §2, §3
# H520 lung cancer cells = experiment: MTS cell viability assay, H520; settings: read-out: EC50 (effective concentration that resulted in 50% cell viability)
# Procedure: as §1, §2, §3
# [5] = system: DU145 prostate cancer cells; settings: for effect on cell viability (in words): DU145, 1 hour treatment (FIG. 8A, top), up to 1 mM carboplatin, 100 μM Pt(IV)-1C, 50 μM Pt(IV)-2C; for EC50: read-out: EC50 (effective concentration that resulted in 50% cell viability); for anti-proliferative activity compared to cisplatin (in words): DU145, one and 48 hours treatment (FIG. 8H)
# Procedure: as §1, §2, §3, §4
# A549 lung cancer cells = experiment: MTS cell viability assay, A549; settings: for EC50: read-out: EC50 (effective concentration that resulted in 50% cell viability)
# Procedure: as §1, §2, §3
# [6] = system: SK-BR-3 breast cancer cells; experiment: MTS cell viability assay, SK-BR-3; settings: for EC50: read-out: EC50 (effective concentration that resulted in 50% cell viability); for anti-proliferative activity compared to cisplatin (in words): SK-BR-3, one and 48 hours treatment (FIG. 8G)
# Procedure: as §1, §2, §3, §4
# [7] = system: T-47D breast cancer cells; experiment: MTS cell viability assay, T-47D
# Procedure: as §1, §2, §3
# [8] = system: MCF-7 breast cancer cells; experiment: MTS cell viability assay, MCF-7; settings: for EC50: read-out: EC50 (effective concentration that resulted in 50% cell viability)
# Procedure: as §1, §2, §3
# [9] = MDA-MB-231, 1 h treatment, Table 2
# [10] = MDA-MB-231, 48 h treatment, Table 4
# [11] = ZR-75-1, 1 h treatment, Table 2
# [12] = ZR-75-1, 48 h treatment, Table 4
# [13] = SK-BR-3, 1 h treatment, Table 2
# [14] = SK-BR-3, 48 h treatment, Table 4
# [15] = 1 h treatment, Table 2, read-out: EC50 (effective concentration that resulted in 50% cell viability)
# [16] = 48 h treatment, Table 4, read-out: EC50 (effective concentration that resulted in 50% cell viability)
structure (smiles),measurement,setting,value
"CC(=O)[O][Pt]([Cl])([Cl])[O]C(C)=O.CCCOc1ccnc(-c2cc(OCCC)ccn2)c1 [Pt(IV)-3C, [Pt(IV)Cl2(OAc)2(4,4′-dipropoxy-2,2′-bipyridine)]]",EC50,"[1]; HCC38, 1 h treatment, Table 3",26 ± 6 µM
same,EC50,"[1]; HCC38, 48 h, Table 5",8 ± 1 µM
same,EC50,"[2]; PC-3, 1 h treatment, Table 3",23 ± 0.3 µM
same,EC50,"[2]; PC-3, 48 h, Table 5",1.1 ± 0.4 µM
same,EC50,"[3]; MDA-MB-231, 1 h treatment, Table 3",34 ± 7 µM
same,EC50,"[3]; MDA-MB-231, 48 h, Table 5",6.1 ± 0.4 µM
same,EC50,"[4]; ZR-75-1, 1 h treatment, Table 3",24 ± 3 µM
same,EC50,"[4]; ZR-75-1, 48 h, Table 5",1.21 ± 0.04 µM
same,EC50,"H520 lung cancer cells; H520, 1 h treatment, Table 3",80 ± 20 µM
same,EC50,"H520 lung cancer cells; H520, 48 h, Table 5",8 ± 6 µM
same,effect on cell viability (in words),[5],least effective among the five active compounds
same,EC50,"[5]; DU145, 1 h treatment, Table 3",24 ± 7 µM
same,EC50,"[5]; DU145, 48 h, Table 5",1 ± 1 µM
same,effect on cell viability (in words),"A549 lung cancer cells; A549, 1 hour treatment, at the concentrations tested (FIG. 8E)",did not have any effect
same,EC50,"A549 lung cancer cells; A549, 1 h treatment, Table 3",> 50 µM
same,EC50,"A549 lung cancer cells; A549, 48 h, Table 5",23 ± 1 µM
same,EC50,"[6]; SK-BR-3, 1 h treatment, Table 3",19 ± 2 µM
same,EC50,"[6]; SK-BR-3, 48 h, Table 5",0.9 ± 0.1 µM
same,EC50,"[7]; 1 h treatment, Table 3, read-out: EC50 (effective concentration that resulted in 50% cell viability)",24 ± 3 µM
same,EC50,"[7]; 48 h, Table 5, read-out: EC50 (effective concentration that resulted in 50% cell viability)",0.59 ± 0.01 µM
same,effect on cell viability (in words),"[8]; MCF-7, 1 hour treatment, at the concentrations tested (FIG. 8F)",did not have any effect
same,EC50,"[8]; MCF-7, 1 h treatment, Table 3",> 100 µM
same,EC50,"[8]; MCF-7, 48 h, Table 5",29 ± 2 µM
"N.N.O=C([O-])C1(C(=O)[O-])CCC1.[Pt+2] [Carboplatin, carboplatin, reference compound]",effect on cell viability (in words),[5],no effect
same,EC50,"[5]; DU145, 1 h treatment, Table 2",> 1000 µM
same,EC50,"[5]; DU145, 1 h treatment, Table 3",> 1000 µM
same,EC50,"[5]; DU145, 48 h, Table 5",400 ± 100 µM
same,EC50,"[5]; DU145, 48 h treatment, Table 4",400 ± 100 µM
same,EC50,"A549 lung cancer cells; A549, 1 h treatment, Table 2",> 1000 µM
same,EC50,"A549 lung cancer cells; A549, 1 h treatment, Table 3",> 1000 µM
same,EC50,"A549 lung cancer cells; A549, 48 h, Table 5",300 ± 30 µM
same,EC50,"A549 lung cancer cells; A549, 48 h treatment, Table 4",300 ± 30 µM
same,EC50,"[8]; MCF-7, 1 h treatment, Table 2",> 1000 µM
same,EC50,"[8]; MCF-7, 1 h treatment, Table 3",> 1000 µM
same,EC50,"[8]; MCF-7, 48 h, Table 5",800 ± 100 µM
same,EC50,"[8]; MCF-7, 48 h treatment, Table 4",800 ± 100 µM
CCCOc1ccnc(-c2cc(OCCC)ccn2)c1.[Cl][Pt][Cl] [Pt(II)-3C],EC50,"[1]; HCC38, 1 h treatment, Table 2",3 ± 2 µM
same,EC50,"[1]; HCC38, 48 h treatment, Table 4",4.7 ± 0.5 µM
same,EC50,"[2]; PC-3, 1 h treatment, Table 2",5 ± 1 µM
same,EC50,"[2]; PC-3, 48 h treatment, Table 4",5.1 ± 0.8 µM
same,EC50,[3]; [9],4 ± 2 µM
same,EC50,[3]; [10],2.2 ± 0.1 µM
same,EC50,[4]; [11],8.9 ± 0.4 µM
same,EC50,[4]; [12],5 ± 1 µM
same,EC50,"H520 lung cancer cells; H520, 1 h treatment, Table 2",40 ± 20 µM
same,EC50,"H520 lung cancer cells; H520, 48 h treatment, Table 4",13 ± 5 µM
same,EC50,"[5]; DU145, 1 h treatment, Table 2",6 ± 1 µM
same,EC50,"[5]; DU145, 48 h treatment, Table 4",4 ± 2 µM
same,EC50,"A549 lung cancer cells; A549, 1 h treatment, Table 2",48 ± 3 µM
same,EC50,"A549 lung cancer cells; A549, 48 h treatment, Table 4",17 ± 1 µM
same,EC50,[6]; [13],1.81 ± 0.03 µM
same,EC50,[6]; [14],1.73 ± 0.01 µM
same,EC50,[7]; [15],2.4 ± 0.1 µM
same,EC50,[7]; [16],1.9 ± 0.1 µM
same,EC50,"[8]; MCF-7, 1 h treatment, Table 2",100 µM
same,EC50,"[8]; MCF-7, 48 h treatment, Table 4",19 ± 4 µM
CCOCCOCCOC(=O)c1ccnc(-c2cc(C(=O)OCCOCCOCC)ccn2)c1.[Cl][Pt][Cl] [Pt(II)-COO(C2O)2C2],anti-proliferative activity compared to cisplatin (in words),[2],not as effective as cisplatin
same,anti-proliferative activity compared to cisplatin (in words),[5],not as effective as cisplatin
same,"reduction in cell viability, one hour versus 48 hours treatment",[6]; SK-BR-3 (FIG. 8G),greater reduction in cell viability than when they were treated for 48 hours
same,anti-proliferative activity compared to cisplatin (in words),[6],not as effective as cisplatin
CCOc1ccnc(-c2cc(OCC)ccn2)c1.[Cl][Pt][Cl] [Pt(II)-2C],EC50,"[1]; HCC38, 1 h treatment, Table 2",18 ± 4 µM
same,EC50,"[1]; HCC38, 48 h treatment, Table 4",20 ± 3 µM
same,EC50,"[2]; PC-3, 1 h treatment, Table 2",22 ± 5 µM
same,EC50,"[2]; PC-3, 48 h treatment, Table 4",21 ± 7 µM
same,EC50,[3]; [9],30 ± 20 µM
same,EC50,[3]; [10],20 ± 6 µM
same,EC50,[4]; [11],58 ± 15 µM
same,EC50,[4]; [12],16.5 µM
same,EC50,"H520 lung cancer cells; H520, 1 h treatment, Table 2",> 100 µM
same,EC50,"H520 lung cancer cells; H520, 48 h treatment, Table 4",21 ± 1 µM
same,EC50,"[5]; DU145, 1 h treatment, Table 2",20 ± 5 µM
same,EC50,"[5]; DU145, 48 h treatment, Table 4",11 ± 4 µM
same,EC50,"A549 lung cancer cells; A549, 1 h treatment, Table 2",> 100 µM
same,EC50,"A549 lung cancer cells; A549, 48 h treatment, Table 4",66 ± 7 µM
same,EC50,[6]; [13],2.2 ± 0.2 µM
same,EC50,[6]; [14],1.8 µM
same,EC50,[7]; [15],5 ± 2 µM
same,EC50,[7]; [16],2.2 ± 0.4 µM
same,EC50,"[8]; MCF-7, 1 h treatment, Table 2",> 100 µM
same,EC50,"[8]; MCF-7, 48 h treatment, Table 4",> 100 µM
COC(=O)c1ccnc(-c2cc(C(=O)OC)ccn2)c1.[Cl][Pt][Cl] [Pt(II)-COOC1],anti-proliferative activity compared to cisplatin (in words),[2],generally more effective than cisplatin
same,anti-proliferative activity compared to cisplatin (in words),[5],generally more effective than cisplatin
same,anti-proliferative activity compared to cisplatin (in words),[6],generally more effective than cisplatin
CCCCCCCCOC(=O)c1ccnc(-c2cc(C(=O)OCCCCCCCC)ccn2)c1.[Cl][Pt][Cl] [Pt(II)-COOC8],anti-proliferative activity compared to cisplatin (in words),[2],generally more effective than cisplatin
same,anti-proliferative activity compared to cisplatin (in words),[5],generally more effective than cisplatin
same,anti-proliferative activity compared to cisplatin (in words),[6],generally more effective than cisplatin
CCOC(=O)c1ccnc(-c2cc(C(=O)OCC)ccn2)c1.[Cl][Pt][Cl] [Pt(II)-COOC2],anti-proliferative activity compared to cisplatin (in words),[2],generally more effective than cisplatin
same,anti-proliferative activity compared to cisplatin (in words),[5],generally more effective than cisplatin
same,anti-proliferative activity compared to cisplatin (in words),[6],generally more effective than cisplatin
